Laboratory results published in publication PMC2244712, “One-Pot, Mix-and-Read Peptide-MHC Tetramers” (PLoS ONE, 2008).
pKd: −log10 of the molar value. Residues, ends and D or L forms follow the SMILES beside them.

Assays:
[1] = molecular target: in vivo biotinylated HLA-B*0702-BSPHAT heavy chain folded with ß2m (human); experiment: ELISA
HLA-A*0201 = molecular target: T1, HLA-A*0201 (Homo sapiens, UniProt P04439, D140Y/D185E/D98H/E176V/E277Q/G131W/G231S/I119V/I121R/I166T/I218V/L300P/L318F/N151K/N90K/P208A/P217A/Q86G/Q94H/R138H/R169H/T345S); experiment: biochemical; assay type: binding
T1 construct: generated from synthetic codon optimized and truncated genes without the transmembrane region; BSP (BirA biotinylation substrate peptide, biotinylated in vivo or not) (C); made in house; host or cells: E. coli BL21 (DE3), pET28a+, co-transformed with a BirA vector

[2] = molecular target: in vivo biotinylated HLA-B*4402-HATBSP heavy chain folded with ß2m (human); experiment: ELISA
[3] = molecular target: in vivo biotinylated HLA-A*0201-HAT-BSP heavy chain folded with ß2m (human); experiment: ELISA

Chain of CMV pp65 495-503 peptide (P06725 whole entry, looked up): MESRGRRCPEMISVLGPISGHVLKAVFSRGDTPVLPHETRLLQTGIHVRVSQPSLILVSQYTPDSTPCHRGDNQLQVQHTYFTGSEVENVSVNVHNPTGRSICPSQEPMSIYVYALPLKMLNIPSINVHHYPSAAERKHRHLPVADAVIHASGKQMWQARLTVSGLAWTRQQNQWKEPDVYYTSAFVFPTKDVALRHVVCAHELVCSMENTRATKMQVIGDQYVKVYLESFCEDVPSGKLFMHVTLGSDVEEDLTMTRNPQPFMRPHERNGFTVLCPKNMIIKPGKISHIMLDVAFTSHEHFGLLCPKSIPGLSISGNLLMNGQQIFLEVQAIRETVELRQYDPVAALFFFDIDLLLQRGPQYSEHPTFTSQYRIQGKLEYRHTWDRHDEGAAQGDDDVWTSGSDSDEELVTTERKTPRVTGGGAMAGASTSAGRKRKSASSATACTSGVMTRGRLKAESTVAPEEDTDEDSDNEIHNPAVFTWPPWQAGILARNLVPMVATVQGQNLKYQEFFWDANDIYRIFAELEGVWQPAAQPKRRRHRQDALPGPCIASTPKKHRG
Chain of CMV pp65 417-426 peptide (P06725 whole entry, looked up): as above
Chain of EBV EBNA3b 657-666 peptide (P03203 whole entry, looked up): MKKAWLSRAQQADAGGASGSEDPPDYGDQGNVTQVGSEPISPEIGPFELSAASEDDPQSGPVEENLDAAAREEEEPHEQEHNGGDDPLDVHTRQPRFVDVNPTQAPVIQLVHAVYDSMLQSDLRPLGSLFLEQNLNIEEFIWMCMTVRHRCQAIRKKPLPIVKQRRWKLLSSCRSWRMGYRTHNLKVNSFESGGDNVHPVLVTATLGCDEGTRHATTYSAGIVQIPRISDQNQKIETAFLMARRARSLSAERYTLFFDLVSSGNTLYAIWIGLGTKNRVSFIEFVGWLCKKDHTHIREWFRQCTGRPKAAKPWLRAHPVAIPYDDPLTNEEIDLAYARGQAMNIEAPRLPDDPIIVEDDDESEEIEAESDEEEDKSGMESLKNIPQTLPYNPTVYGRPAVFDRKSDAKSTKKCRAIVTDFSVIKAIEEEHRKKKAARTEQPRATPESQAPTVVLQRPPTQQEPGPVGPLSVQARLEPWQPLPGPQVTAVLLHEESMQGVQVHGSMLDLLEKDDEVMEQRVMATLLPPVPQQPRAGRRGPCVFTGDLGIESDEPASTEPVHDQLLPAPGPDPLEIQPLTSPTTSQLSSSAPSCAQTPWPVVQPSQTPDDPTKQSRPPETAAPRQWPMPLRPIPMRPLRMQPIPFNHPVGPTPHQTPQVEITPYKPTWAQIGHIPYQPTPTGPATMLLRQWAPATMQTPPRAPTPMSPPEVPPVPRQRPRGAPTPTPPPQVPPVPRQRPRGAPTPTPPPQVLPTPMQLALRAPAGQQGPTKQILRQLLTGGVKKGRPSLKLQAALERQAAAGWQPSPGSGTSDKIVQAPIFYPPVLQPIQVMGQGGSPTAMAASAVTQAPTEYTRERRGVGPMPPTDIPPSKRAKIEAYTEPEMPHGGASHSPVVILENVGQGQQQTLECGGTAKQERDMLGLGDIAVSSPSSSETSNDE

| Compound | pKd (HLA-A*0201) | further results |
| --- | --- | --- |
| CMV pp65 417-426 peptide (from UniProt P06725 417-426) |  | % folding [1]: 100% |
| CC(C)C[C@H](NC(=O)[C@@H](N)Cc1ccc(O)cc1)C(=O)N[C@@H](CO)C(=O)N[C@H](C(=O)N[C@@H](CCC(=O)O)C(=O)N[C@@H](CCCNC(=N)N)C(=O)N[C@@H](CC(=O)O)C(=O)N[C@@H](Cc1c[nH]cn1)C(=O)N[C@H](C(=O)O)C(C)C)[C@@H](C)O (H-YLSTERDHV-OH) | 7.00 to 8.00 |  |
| CC[C@H](C)[C@H](NC(=O)[C@H](CCCCN)NC(=O)[C@H](CCCCN)NC(=O)[C@H](CS)NC(=O)[C@H](C)NC(=O)[C@H](CC(=O)O)NC(=O)[C@H](CO)NC(=O)[C@H](CC(C)C)NC(=O)[C@H](C)N)C(=O)O (H-ALSDACKKI-OH) | < 6.00 |  |
| EBV EBNA3b 657-666 peptide (from UniProt P03203 657-666) |  | % folding [2]: 100% |
| CC[C@H](C)[C@H](NC(=O)[C@H](CC(N)=O)NC(=O)[C@@H](NC(=O)[C@H](C)NC(=O)[C@H](CO)NC(=O)[C@H](CC(=O)O)NC(=O)[C@H](CO)NC(=O)[C@H](CC(C)C)NC(=O)[C@@H](N)Cc1ccc(O)cc1)[C@@H](C)CC)C(=O)O (H-YLSDSAINI-OH) | > 8.00 |  |
| CC(C)C[C@H](NC(=O)[C@@H](N)Cc1ccccc1)C(=O)N[C@@H](CCC(=O)O)C(=O)N[C@H](C(=O)N[C@@H](CC(=O)O)C(=O)N[C@@H](C)C(=O)NCC(=O)N[C@@H](CCCNC(=N)N)C(=O)N[C@H](C(=O)O)C(C)C)[C@@H](C)O (H-FLETDAGRV-OH) | 7.00 to 8.00 |  |
| CC[C@H](C)[C@H](NC(=O)[C@@H](NC(=O)[C@H](CC(=O)O)NC(=O)[C@H](Cc1ccc(O)cc1)NC(=O)[C@H](CC(=O)O)NC(=O)[C@H](CC(C)C)NC(=O)[C@@H](N)Cc1ccc(O)cc1)[C@@H](C)O)C(=O)N[C@@H](Cc1ccc(O)cc1)C(=O)N[C@H](C(=O)O)C(C)C (H-YLDYDTIYV-OH) | > 8.00 |  |
| CMV pp65 495-503 peptide (from UniProt P06725 495-503) |  | % folding [3]: 95% |
